Experimental data published in patent US20190059429A1, “SALT COMPOSITION INCLUDING SERINE” (NESTEC S.A., priority 2016, published 2019).

Columns and labels:
[1] = Dissolution kinetics in water by online refractometry; format: physicochemical; conditions: 60 mL water, stirred 500 rpm, room temperature, particle size 100-200 μm, refractive index
Protocol: FIG. 1 Dissolution kinetics. The change in refractive index (n) was measured by online-refractometry in water over the time period 0 to 50 seconds. 0.56 g of pure NaCl (triangle); 2.58 g of (L-serine)2.sodium chloride co-crystals (diamond); a physical mixture of 2.02 g L-serine and 0.56 g NaCl (cross); and a 2.02 g of pure L-serine (star) were each added to 60 mL of water stirred (500 rpm) at room temperature. The particle size of the respective solids was standardized in the range 100-200 μm.
The rate of dissolution of a solid in a liquid may be measured by refractometry. A refractometer measures the extent to which light is refracted when it moves from air into a sample, thereby allowing the refractive index (n) of the sample to be measured. […] Accordingly, by monitoring the change in refractive index over time, the kinetic rate of dissolution of a solid can be determined. So that independent measurements of dissolution rate can be compared, the refractive index values may be normalised by expression as a percentage of the maximal value recorded in a particular experiment.
The dissolution behaviour of (L-serine)2.sodium co-crystals obtained by direct crystallisation from a saturated solution (Example 2) were tested by refractometry. In this experiment, test samples were added to 60 mL of water, and the extent of dissolution was measured while stirring at 500 rpm. […]

trained panellists = experiment: Sensory evaluation of tablets by 11 trained panellists; format: in vivo; conditions: tablets 123.7 mg
Protocol: Bars coloured black denote a significant difference in a particular taste/sensory characteristic. Unshaded bars denote that there is no significant difference in the characteristic. A positive number represents an increased sensory response of the co-crystal compared to the physical mixture.
Tablets for sensory evaluation were prepared using a Romaco Kilian Styl'One single-stroke tablet press. […] The tablets were prepared with three compressions of 300 ms and an interval of 200 ms.
Each of the panellists received a tray with two tablets presented on plastic plates coded with random 3-digit numbers. The tablets had to be crunched with the front teeth and kept in mouth to dissolve slowly (method 1). Alternatively, tablets could be crunched with the front teeth and chewed constantly in the mouth until complete dissolution occurred (method 2).
Afterwards the panellists were asked to rate the taste of the tablets in respect of the following 12 categories: upfront saltiness (1), overall saltiness (2), sweetness (3), sourness (4), umami (5), friable (6), melting (7), overall persistence (8), saltiness persistence (9), sweetness persistence (10), sourness persistence (11), and tingling (12).

SMILES | time to reach 90% dissolution [1] | salty taste perceived, co-crystal tablets vs L-serine/NaCl physical mix tablets (trained panellists; during and after consumption) | overall saltiness vs physical mix (trained panellists; FIG. 2) | saltiness persistence vs physical mix (trained panellists; FIG. 2) | upfront saltiness vs physical mix (trained panellists; FIG. 2)
N[C@@H](CO)C(=O)O.N[C@@H](CO)C(=O)O.[Cl-].[Na+] [(L-serine)2.sodium chloride co-crystals, (L-serine)2.sodium chloride] | around 25 seconds | significantly more salty | superior | superior | superior
[Cl-].[Na+] [NaCl, Sodium chloride, reference compound] | around 25 seconds |  |  |  | 
